Measurements reported in patent US20160052887A1, “PHARMACEUTICALLY ACCEPTABLE AMINE SALTS OF PITAVASTATIN” (DSM SINOCHEM PHARMACEUTICALS NETHERLANDS B.V., priority 2013, published 2016).
Counter-ions that a name gives are not always drawn.

How the values were obtained:
[1] = Solubility of pitavastatin salts in buffers of pH 1.2 and pH 4.8; format: physicochemical; settings: for Appearance: appearance of the mixture at the reported pH and amount of salt added
Text: The pharmaceutically acceptable pitavastatin salts obtained above were subjected to solubility measurements. […] Amounts of added salt were increased as long as the resulting solution remained clear and the resulting pH value, as well as the total amount of salt added, are reported in the below Table.
The following observations were made. The solubility of pitavastatin calcium salt is very low, initially the compound floated on the buffer. In contrast, the solubility of the amine salts was much higher; in many cases solutions were still clear after more than 160 mg·g^−1 solution was added. For the amine salts, pH values increased to values as reported in the Table upon increasing addition of salt (indicating exhaustion of buffer capacity due to high salt solubility). […] Qualitatively, the speed of dissolution of the amine salts was much faster than the speed of dissolution of the calcium salt. The pitavastatin amine salts were not hygroscopic (qualitative determination).

[2] = Basic toxicological evaluation

SMILES | Appearance [1] | also measured
O=C(O)C[C@H](O)C[C@H](O)/C=C/c1c(C2CC2)nc2ccccc2c1-c1ccc(F)cc1 [L-Lysine salt, pitavastatin-lysine salt] |  | Solubility (observation in words) ([1]; starting with a buffer of pH 4.8 (entry at pH 4.5)): very low
O=C(O)C[C@H](O)C[C@H](O)/C=C/c1c(C2CC2)nc2ccccc2c1-c1ccc(F)cc1 [Calcium salt, pitavastatin-Ca, reference compound] | Suspension | Solubility (observation in words) ([1]; aqueous buffers): very low
O=C(O)C[C@H](O)C[C@H](O)/C=C/c1c(C2CC2)nc2ccccc2c1-c1ccc(F)cc1 [Choline salt, pitavastatin-choline salt] | Clear | 
NCc1ccco1.O=C(O)C[C@H](O)C[C@H](O)/C=C/c1c(C2CC2)nc2ccccc2c1-c1ccc(F)cc1 [Furfurylamine salt, pitavastatin-furfuryl amine salt] | Suspension | 
NCc1ccco1 [1-furfurylamine] |  | Toxicological classification [2]: very safe
O=C(O)C[C@H](O)C[C@H](O)/C=C/c1c(C2CC2)nc2ccccc2c1-c1ccc(F)cc1 [Tris(hydroxymethyl)-aminomethane salt, pitavastatin-tris(hydroxymethyl)aminomethane salt] | Clear | 
